Assay results from patent publication US8288555B2, “Alkene derivatives as sphingosine 1-phosphate (S1P) receptor modulators” (Allergan, Inc., priority 2010, dated 2012).

molecular target: T1, human S1P4 receptor (Homo sapiens, UniProt O95977); test: GTP γ35S binding assay for S1P4 activity; format: biochemical; conditions: activity potency at the S1P4 receptor from GTP γ35S binding; membranes of cells stably expressing the S1P4 receptor; test compounds 0.08 to 5,000 nM
T1 construct: expressed in transfected cells; membranes used
T1 sequence (O95977 1-384): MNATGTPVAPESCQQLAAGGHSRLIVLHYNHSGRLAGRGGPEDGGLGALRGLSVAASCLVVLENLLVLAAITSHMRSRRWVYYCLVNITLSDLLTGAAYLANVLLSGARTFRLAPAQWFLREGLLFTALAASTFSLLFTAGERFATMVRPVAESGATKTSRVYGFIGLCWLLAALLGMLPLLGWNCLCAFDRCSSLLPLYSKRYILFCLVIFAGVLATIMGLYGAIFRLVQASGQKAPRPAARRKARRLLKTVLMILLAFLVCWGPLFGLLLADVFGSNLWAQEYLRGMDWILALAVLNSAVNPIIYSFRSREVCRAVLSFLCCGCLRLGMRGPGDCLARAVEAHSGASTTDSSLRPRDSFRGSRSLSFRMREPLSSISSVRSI
Protocol: Compounds were synthesized and tested for S1P4 activity using the GTP γ^35S binding assay. These compounds may be assessed for their ability to activate or block activation of the human S1P4 receptor in cells stably expressing the S1P4 receptor.
GTP γ^35S binding was measured in the medium containing (mM) HEPES 25, pH 7.4, MgCl2 10, NaCl 100, dithitothreitol 0.5, digitonin 0.003%, 0.2 nM GTP γ^35S, and 5 μg membrane protein in a volume of 150 μl. Test compounds were included in the concentration range from 0.08 to 5,000 nM unless indicated otherwise. Membranes were incubated with 100 μM 5′-adenylylimmidodiphosphate for 30 min, and subsequently with 10 μM GDP for 10 min on ice. Drug solutions and membrane were mixed, and then reactions were initiated by adding GTP γ^35S and continued for 30 min at 25° C. Reaction mixtures were filtered over Whatman GF/B filters under vacuum, and washed three times with 3 mL of ice-cold buffer (HEPES 25, pH7.4, MgCl2 10 and NaCl 100). Filters were dried and mixed with scintillant, and counted for ^35S activity using a β-counter. Agonist-induced GTP γ^35S binding was obtained by subtracting that in the absence of agonist. Binding data were analyzed using a non-linear regression method. In case of antagonist assay, the reaction mixture contained 10 nM S1P in the presence of test antagonist at concentrations ranging from 0.08 to 5000 nM.

| SMILES | EC50 |
| --- | --- |
| CNc1ncccc1-c1noc(/C(=C/c2ccc(C)c(C)c2)c2cccc(C)c2)n1 [Compound 6, 3-{5-[(E)-2-(3,4-Dimethylphenyl)-1-(3-methylphenyl)vinyl]-1,2,4-oxadiazol-3-yl}-N-methylpyridin-2-amine] | 2020 nM |
| CNc1ncccc1-c1noc(/C(=C/c2ccc(C)c(C)c2)c2ccsc2)n1 [Compound 8, 3-{5-[(E)-2-(3,4-Dimethylphenyl)-1-(3-thienyl)vinyl]-1,2,4-oxadiazol-3-yl}-N-methylpyridin-2-amine] | 665 nM |
| CNc1ncccc1-c1noc(/C(=C/c2ccc(C)cc2)c2cccs2)n1 [Compound 10, N-Methyl-3-{5-[(Z)-2-(4-methylphenyl)-1-(2-thienyl)vinyl]-1,2,4-oxadiazol-3-yl}pyridin-2-amine] | 635 nM |
| CNc1ncccc1-c1noc(/C(=C/c2ccc(C)c(C)c2)c2cccc(OC)c2)n1 [Compound 15, 3-{5-[(E)-2-(3,4-Dimethylphenyl)-1-(3-methoxyphenyl)vinyl]-1,2,4-oxadiazol-3-yl}-N-methylpyridin-2-amine] | 1780 nM |
| CNc1ncccc1-c1noc(/C(=C/c2ccccc2C)c2cccc(Cl)c2)n1 [Compound 20, 3-{5-[(E)-1-(3-Chlorophenyl)-2-(2-methylphenyl)vinyl]-1,2,4-oxadiazol-3-yl}-N-methylpyridin-2-amine] | 2000 nM |

These reach a lower EC50. Values come first.

| EC50 | SMILES |
| --- | --- |
| 140 nM | CNc1ncccc1-c1noc(/C(=C/c2ccc(C)c(C)c2)c2cccs2)n1 [3-{5-[(Z)-2-(3,4-dimethylphenyl)-1-(2-thienyl)vinyl]-1,2,4-oxadiazol-3-yl}-N-methylpyridin-2-amine] |
| 375 nM | CNc1ncccc1-c1noc(/C(=C/c2ccc(C)c(C)c2)c2cccc(F)c2)n1 [Compound 5, 3-{5-[(E)-2-(3,4-Dimethylphenyl)-1-(3-fluorophenyl)vinyl]-1,2,4-oxadiazol-3-yl}-N-methylpyridin-2-amine] |
| 79.3 nM | CNc1ncccc1-c1noc(/C(=C/c2ccc(C)c(C)c2)c2cccc(Cl)c2)n1 [Compound 7, 3-{5-[(E)-1-(3-Chlorophenyl)-2-(3,4-dimethylphenyl)vinyl]-1,2,4-oxadiazol-3-yl}-N-methylpyridin-2-amine] |
| 550 nM | CNc1ncccc1-c1noc(/C(=C/c2ccc(C)c(C)c2)c2cc(F)cc(F)c2)n1 [Compound 14, 3-{5-[(E)-1-(3,5-Difluorophenyl)-2-(3,4-dimethylphenyl)vinyl]-1,2,4-oxadiazol-3-yl}-N-methylpyridin-2-amine] |
| 501 nM | CNc1ncccc1-c1noc(/C(=C/c2ccc(C)c(C)c2)c2ccccc2OC)n1 [Compound 16, 3-{5-[(E)-2-(3,4-Dimethylphenyl)-1-(2-methoxyphenyl)vinyl]-1,2,4-oxadiazol-3-yl}-N-methylpyridin-2-amine] |
